Experimental data taken from patent publication US20260035367A1 (Celgene Corporation, priority 2021, published 2026).
Where two headings read alike, the source gives them in different places.

What was measured:
[1] = biological target: T1, Recombinant human PKC-theta (His-tagged 362-706) (Homo sapiens, UniProt Q04759); assay: PKC-theta inhibition assay (HTRF KinEASE kit); assay type: biochemical; conditions: ATP 6.5 μM, STK substrate 525 nM
T1 construct: Recombinant human PKC-theta (His-tagged 362-706); His
T1 sequence (Q04759 362-706): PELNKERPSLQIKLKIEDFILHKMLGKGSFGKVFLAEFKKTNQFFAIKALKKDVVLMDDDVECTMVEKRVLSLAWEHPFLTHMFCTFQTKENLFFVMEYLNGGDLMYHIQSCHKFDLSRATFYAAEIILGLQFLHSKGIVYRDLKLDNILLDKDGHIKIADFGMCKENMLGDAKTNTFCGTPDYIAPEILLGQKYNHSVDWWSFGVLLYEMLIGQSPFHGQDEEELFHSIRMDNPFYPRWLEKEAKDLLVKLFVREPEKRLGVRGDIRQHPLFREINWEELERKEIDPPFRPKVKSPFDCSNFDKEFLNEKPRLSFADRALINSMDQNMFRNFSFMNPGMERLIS
Procedure: PKC-theta and PKC-delta biochemical activities were measured using the PKC-theta HTRF KinEASEkit kit, according to manufacturer's instructions (Cisbio, catalogue number 61ST1PEJ). Briefly, the kinase buffer component of the kit was supplemented with 10 mM MgCl2, 1 mM DTT and 0.1% Tween 20. […] The streptavidin_XL665 and STK antibody-cryptate detection reagents were mixed according to the manufacturer's instructions. Test compounds were diluted in DMSO in a series of 10 semi-log step doses; 10 nL of each compound dose were dispensed in 384 well plates. […] The reaction was started by addition of the substrate and ATP and incubated at 25° C. for 30 minutes or 20 minutes for the PKC-theta and PKC-delta assays, respectively. The detection reagents were added, and the plate was incubated in the dark for 2 hours. […] The ratio of acceptor and donor emission signals was calculated for each well. Percent inhibition values were calculated from the HTRF ratios at different doses and fitted to a 4-parameter logistic curve to determine IC50 values (see Table 2).

[2] = biological target: T2, Recombinant human PKC-delta (His-tagged 345-676) (Homo sapiens, UniProt Q05655); assay: PKC-delta inhibition assay (HTRF KinEASE kit); assay type: biochemical; conditions: ratio, PKC-theta vs PKC-delta HTRF; for PKC-theta/PKC-delta selectivity (binned): binned A to G
T2 construct: PKC-delta (His-tagged 345-676); His
T2 sequence (Q05655 345-676): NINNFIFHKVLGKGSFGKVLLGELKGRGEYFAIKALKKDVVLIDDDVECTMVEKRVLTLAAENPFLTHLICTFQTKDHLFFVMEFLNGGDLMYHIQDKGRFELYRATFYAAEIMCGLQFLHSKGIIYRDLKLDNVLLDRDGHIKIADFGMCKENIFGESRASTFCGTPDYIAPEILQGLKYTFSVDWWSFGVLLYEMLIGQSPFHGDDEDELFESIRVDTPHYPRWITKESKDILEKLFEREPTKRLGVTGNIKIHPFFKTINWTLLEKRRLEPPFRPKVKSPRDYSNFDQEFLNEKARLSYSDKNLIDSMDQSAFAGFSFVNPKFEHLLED

[3] = test system: IL-2 secretion by human effector memory T cells (TEM); assay: Effector memory T cells IL-2 release assay (CD3/CD28 stimulation, HTRF IL-2 detection); assay type: cell-based; conditions: 24 h; for IC50: Homo sapiens, T-cell
Procedure: Test compound-mediated inhibition of NFκB signalling in T cells was assessed by quantification of the IL-2 secretion by human effector memory T cells (TEM) upon treatment and stimulation. Human TEM cells were isolated from buffy coats of healthy donors obtained from the French blood bank.
Finally, 10 doses of test compound, originally prepared in DMSO by serial semi-log step dilution, were also added to cells in triplicate wells. Final DMSO concentration in wells was 0.1% in a total volume of 100 μL complete medium. Plates were incubated for 24 h at 37° C. in 5% CO2 atmosphere. After incubation, cell suspensions were centrifuged at 400×g and culture supernatants were recovered and stored at −80° C. […] IL-2 levels were determined in cell supernatants using an HTRF human IL-2 detection kit (Cisbio, cat #62HIL02PEH).

[4] = binned A to H, read-out: PKC-theta HTRF pIC50 (binned) (converted)
[5] = read-out: PKC-theta HTRF pIC50 (converted)
[6] = binned A to G, read-out: PKC-theta IL2 pIC50 (binned) (converted)
[7] = read-out: PKC-theta IL2 pIC50 (converted)

PKC-theta IL2 pIC50 [3] | Structure (SMILES) | IC50 [1, 4] | IC50 [1, 5] | PKC-theta/PKC-delta selectivity [2] | PKC-theta/PKC-delta selectivity (binned) [2] | IC50 [3, 6] | IC50 [3, 7] | PKC-theta IL2 pIC50 (binned) ([3]; binned A to G)
– | CC1(C)C(=O)Nc2nccc(-c3cccc(N(CC4COC4)C4CCNCC4)c3)c21 [Example 41] | 0.0316 to 0.1 µM | 0.0794 µM | 3 | F (a ratio of between 1 and 5) | > 1 µM | 2 µM | –
– | CC1(C)C(=O)Nc2nccc(-c3cccc(N(CC4COC4)C4CCCNC4)c3)c21 (stereo not shown) [Example 26] | 0.1 to 0.316 µM | 0.158 µM | 2 | F (a ratio of between 1 and 5) | > 1 µM | 2.51 µM | –
– | CC1(C)C(=O)Nc2nccc(-c3cccc(N4CCNC(Cc5cccnc5)C4)c3)c21 (stereo not shown) [Example 67] | 0.0316 to 0.1 µM | 0.0501 µM | 3 | F (a ratio of between 1 and 5) | > 1 µM | 1 µM | –
– | C[C@H]1CN(c2cc(C(F)(F)F)cc(-c3ccnc4c3C(C)(C)C(=O)N4)n2)CCN1 [Example 141] | 0.00316 to 0.01 µM | 0.00398 µM | 16 | D (a ratio of between 10 and 20) | 0.0316 to 0.1 µM | 0.0501 µM | –
– | C[C@H]1CCN(c2cc(C(F)(F)F)cc(-c3ccnc4c3C(C)(C)C(=O)N4)n2)CCN1 [Example 183] | 0.00316 to 0.01 µM | 0.00631 µM | 25 | C (a ratio of between 20 and 30) | 0.1 to 0.316 µM | 0.126 µM | –
– | O=c1[nH]c2nccc(-c3ccnc(N4CCNCC4)c3)c2[nH]1 [Example 13] | 0.316 to 1 µM | 0.398 µM | – | – | > 1 µM | 10 µM | –
– | CC1C(=O)Nc2nccc(-c3cc(N4CCNCC4)cc(C(F)(F)F)c3)c21 (stereo not shown) [Example 25] | 0.0316 to 0.1 µM | 0.0501 µM | 7 | E (a ratio of between 5 and 10) | 0.316 to 1 µM | 0.501 µM | –
– | C[C@@]1(O)C(=O)Nc2nccc(-c3cc(C(F)(F)F)cc(N4CC5CCC4CN5)n3)c21 (single isomer, unassigned) [Example 138] | 0.01 to 0.0316 µM | 0.0158 µM | 16 | D (a ratio of between 10 and 20) | 0.316 to 1 µM | 0.631 µM | –
– | CC[C@]1(O)C(=O)Nc2nccc(-c3cc(C(F)(F)F)cc(N4CCNC[C@H]4C)n3)c21 (single isomer, unassigned) [Example 167] | 0.1 to 0.316 µM | 0.316 µM | 33 | B (a ratio of between 30 and 50) | > 1 µM | 2.51 µM | –
– | C[C@H]1CNCCN1c1cccc(-c2ccnc3c2C(C)(C)C(=O)N3)c1 [Example 39] | 0.1 to 0.316 µM | 0.2 µM | 1 | F (a ratio of between 1 and 5) | > 1 µM | 2.51 µM | –
– | CC1(C)C(=O)Nc2nccc(-c3cc(N4CCNCC4)cc(C(F)(F)F)c3)c21 [Example 37] | 0.0316 to 0.1 µM | 0.1 µM | 5 | F (a ratio of between 1 and 5) | > 1 µM | 1.26 µM | –
– | C[C@@H]1CN(c2cc(Cl)cc(-c3ccnc4c3C(C)(O)C(=O)N4)c2)CCN1 (stereo partly shown) [Example 76] | 0.0316 to 0.1 µM | 0.0501 µM | 11 | D (a ratio of between 10 and 20) | 0.316 to 1 µM | 0.794 µM | –
– | CC1(Cc2ccccc2)C(=O)Nc2nccc(-c3cccc(N4CCNCC4)c3)c21 (stereo not shown) [Example 49] | 0.316 to 1 µM | 1 µM | 1 | F (a ratio of between 1 and 5) | > 1 µM | 3.98 µM | –
7.1 | CC[C@H]1CN(c2cc(Cl)cc(-c3ccnc4c3[C@@](C)(OC)C(=O)N4)n2)CCN1 (single isomer, unassigned) [Example 152] | 0.00316 to 0.01 µM | 0.00631 µM | 11 | D (a ratio of between 10 and 20) | – | – | D (a measured pIC50 of between 7.0 and 7.5)
– | COc1cc(-c2ccnc3[nH]c(=O)[nH]c23)cc(N2CCNCC2)c1 [Example 9] | > 1 µM | 2 µM | 1 | G (a ratio of 0 to 1) | > 1 µM | 1.26 µM | –
– | COC1(C)C(=O)Nc2nccc(-c3cc(C(F)(F)F)cc(N4CCN[C@@H](C)C4)n3)c21 (stereo partly shown) [Example 112] | 0.01 to 0.0316 µM | 0.0158 µM | 20 | C (a ratio of between 20 and 30) | 0.1 to 0.316 µM | 0.251 µM | –
– | CC1(C)CN(c2cc(C(F)(F)F)cc(-c3ccnc4c3[C@](C)(O)C(=O)N4)n2)CCN1 (single isomer, unassigned) [Example 134] | 0.00316 to 0.01 µM | 0.00794 µM | 10 | D (a ratio of between 10 and 20) | 0.1 to 0.316 µM | 0.1 µM | –
– | CC(C)[C@H]1CN(c2cccc(-c3ccnc4c3C(C)(C)C(=O)N4)c2)CCN1 [Example 50] | 0.0316 to 0.1 µM | 0.0794 µM | 2 | F (a ratio of between 1 and 5) | > 1 µM | 1 µM | –
– | CC[C@H]1CN(c2cc(Cl)cc(-c3ccnc4c3C(O)(CC)C(=O)N4)n2)CCN1 (stereo partly shown) [Example 143] | 0.00316 to 0.01 µM | 0.00398 µM | 8 | E (a ratio of between 5 and 10) | 0.0316 to 0.1 µM | 0.0316 µM | –
– | CC1C(=O)Nc2nccc(-c3cccc(CN(C)C)c3)c21 (stereo not shown) [Example 22] | 0.316 to 1 µM | 0.501 µM | 1 | F (a ratio of between 1 and 5) | > 1 µM | 1.58 µM | –
– | C[C@@H]1CNCCN1c1cc(Cl)cc(-c2ccnc3c2[C@](C)(O)C(=O)N3)n1 (single isomer, unassigned) [Example 105] | 0.000316 to 0.001 µM | 0.001 µM | 7 | E (a ratio of between 5 and 10) | 0.01 to 0.0316 µM | 0.02 µM | –
– | C[C@@H]1CN(c2cc(C(F)(F)F)cc(-c3ccnc4c3C(C)(C)C(=O)N4)n2)CCCN1 [Example 186] | 0.00316 to 0.01 µM | 0.00631 µM | 22 | C (a ratio of between 20 and 30) | 0.0316 to 0.1 µM | 0.0501 µM | –
– | C[C@@H]1CN(c2cc(C(F)(F)F)cc(-c3ccnc4c3C(C)(C)C(=O)N4)n2)[C@@H](C)CN1 [Example 117] | 0.01 to 0.0316 µM | 0.0126 µM | 10 | D (a ratio of between 10 and 20) | 0.1 to 0.316 µM | 0.2 µM | –
– | CC1(C)C(=O)Nc2nccc(-c3cc(OC(F)F)cc(N4CCNCC4)n3)c21 [Example 86] | 0.0316 to 0.1 µM | 0.0316 µM | 10 | E (a ratio of between 5 and 10) | 0.316 to 1 µM | 0.501 µM | –
– | CC1C(=O)Nc2nccc(-c3cccc(CN4CCNCC4)c3)c21 (stereo not shown) [Example 19] | 0.1 to 0.316 µM | 0.2 µM | 2 | F (a ratio of between 1 and 5) | > 1 µM | 2 µM | –
– | C[C@H]1CN(c2cc(Cl)cc(-c3ccnc4c3C(C)(O)C(=O)N4)n2)CCN1 (stereo partly shown) [Example 74] | – | – | 12 | D (a ratio of between 10 and 20) | – | – | –
– | CC[C@@]1(C)C(=O)Nc2nccc(-c3cc(Cl)cc(N4CCN[C@@H](C)C4)n3)c21 (single isomer, unassigned) [Example 170] | 0.00316 to 0.01 µM | 0.00631 µM | – | – | 0.1 to 0.316 µM | 0.1 µM | –
